The values below come from patent US20240116985A1, “STAPLED PEPTIDES AND METHODS THEREOF” (priority 2020, published 2024).

Where two headings read alike, the source gives them in different places. Bounds are passed on as bounds.

The target in assay [1] is T1, full-length beta-Catenin (Uniprot ID P35222) (Homo sapiens, UniProt P35222).
T1 construct: 10 nM full-length beta-Catenin (Uniprot ID P35222)
T1 sequence (P35222 1-781): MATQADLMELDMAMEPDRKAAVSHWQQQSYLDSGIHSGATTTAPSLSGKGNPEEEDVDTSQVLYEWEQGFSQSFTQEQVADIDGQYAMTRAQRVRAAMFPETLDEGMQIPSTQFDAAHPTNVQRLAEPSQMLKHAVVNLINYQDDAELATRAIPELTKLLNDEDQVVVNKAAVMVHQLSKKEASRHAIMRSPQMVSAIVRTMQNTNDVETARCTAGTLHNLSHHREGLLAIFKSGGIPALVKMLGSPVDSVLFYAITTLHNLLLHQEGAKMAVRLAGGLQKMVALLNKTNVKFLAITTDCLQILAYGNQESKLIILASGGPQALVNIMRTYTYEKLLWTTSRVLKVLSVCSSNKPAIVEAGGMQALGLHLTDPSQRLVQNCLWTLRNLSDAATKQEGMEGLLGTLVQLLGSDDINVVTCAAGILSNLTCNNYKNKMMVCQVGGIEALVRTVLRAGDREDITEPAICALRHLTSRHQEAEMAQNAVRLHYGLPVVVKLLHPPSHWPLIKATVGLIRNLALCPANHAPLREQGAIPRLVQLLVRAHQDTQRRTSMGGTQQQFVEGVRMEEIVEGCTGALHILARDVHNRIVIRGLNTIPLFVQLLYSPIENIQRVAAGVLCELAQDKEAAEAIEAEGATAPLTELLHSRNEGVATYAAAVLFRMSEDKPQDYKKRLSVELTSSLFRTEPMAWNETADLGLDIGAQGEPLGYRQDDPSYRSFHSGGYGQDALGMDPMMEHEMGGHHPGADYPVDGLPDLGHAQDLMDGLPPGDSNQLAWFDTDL
In words: Fluorescence polarization IC50 (beta-catenin / 5FAM-TCF4 10-53 competition). In kind it is binding.

Assay [2] has as its target T2, beta-catenin/TCF4 engagement (Homo sapiens, UniProt P35222).
T2 construct: expressed in transfected cells; host or cells: HEK293
T2 sequence (P35222 1-781): T1 sequence (P35222 1-781)
The assay is described as follows: Nano-BRET target engagement assay (B-cat-Halo & TCF4-Luc in HEK293 cells). Conditions: read-out: NanoBRET Abs IC50. In kind it is cell-based.

Where [3] appears, read: fluorescence polarization; read-out: beta-Catenin FP IC50.

In the case of `CC(=O)N1CCC[C@]12CC=CCCCC1(CCCC=CCCCOC(=O)N3CC[C@@](C(=O)N[C@@H](Cc4ccsc4)C(=O)N[C@@H](Cc4csc5ccccc45)C(=O)N[C@@H](CCC(N)=O)C(N)=O)(C3)NC(=O)[C@H](CCO)NC(=O)[C@H](Cc3cccc(C(=O)O)c3)NC(=O)[C@H](C)NC(=O)[C@H](C)NC(=O)[C@H](Cc3c[nH]c4ccccc34)NC(=O)[C@H](CC(=O)O)NC1=O)NC(=O)[C@H](CC(C)(C)C)NC(=O)[C@H](CC(=O)O)NC2=O` (stereo partly drawn) [I-2128, Ac-PL3-Asp-Npg-B5-Asp-Trp-Ala-Ala-3COOHF-Hse-PyrS2-3Thi-BztA-Gln-NH2], the IC50 came to 29 nM in assay [1] (setting [3]) and 27000 nM in assay [2].

Consider `CC(=O)N1CCC[C@]12CC=CCCCC1(CCCC=CCCCOC(=O)N3CC[C@@](C(=O)N[C@@H](Cc4ccsc4)C(=O)N[C@@H](Cc4csc5ccccc45)C(=O)N[C@@H](C)C(N)=O)(C3)NC(=O)[C@H](CC(N)=O)NC(=O)[C@H](Cc3ccccc3)NC(=O)[C@H](C)NC(=O)[C@H](C)NC(=O)[C@H]([C@@H](C)O)NC(=O)[C@H](CC(N)=O)NC1=O)NC(=O)[C@H](CC(C)(C)C)NC(=O)[C@H](CC(=O)O)NC2=O` (stereo partly drawn) [I-2142, Ac-PL3-Asp-Npg-B5-Asn-Thr-Ala-Ala-Phe-Asn-PyrS2-3Thi-BztA-Ala-NH2], for which the IC50 is 271 nM in assay [1] (setting [3]) and more than 20000 nM in assay [2].

Turning to `CC(=O)N1CCC[C@]12CC=CCC1(CC=CCCCOC(=O)N3CC[C@@](C(=O)N[C@@H](Cc4ccsc4)C(=O)N[C@@H](Cc4csc5ccccc45)C(=O)N[C@@H](CCC(N)=O)C(N)=O)(C3)NC(=O)[C@H](CC(C)C)NC(=O)[C@H](Cc3ccccc3)NC(=O)[C@H](C)NC(=O)[C@H](C)NC(=O)[C@H](CC(=O)O)NC(=O)[C@H](CC(=O)O)NC1=O)NC(=O)[C@H](CC(C)(C)C)NC(=O)[C@H](CC(=O)O)NC2=O` (stereo partly drawn) [I-2156, Ac-PL3-Asp-Npg-B3-Asp-Asp-Ala-Ala-Phe-Leu-PyrS2-3Thi-BztA-Gln-NH2], the IC50 is 387 nM in assay [1] (setting [3]) and more than 20000 nM in assay [2].

As for `CC(=O)N1CCC[C@]12CCCCC1(CCCCCCCOC(=O)N3CC[C@@](C(=O)N[C@@H](Cc4ccsc4)C(=O)N[C@@H](Cc4csc5ccccc45)C(=O)N[C@@H](CCC(N)=O)C(N)=O)(C3)NC(=O)[C@H](CC(C)C)NC(=O)[C@H](Cc3ccccc3)NC(=O)[C@H](C)NC(=O)[C@H](C)NC(=O)[C@H](CC(=O)O)NC(=O)[C@H](CC(=O)O)NC1=O)NC(=O)[C@H](CC(C)(C)C)NC(=O)[C@H](CC(=O)O)NC2=O` (stereo partly drawn) [I-2161, Ac-PL3-Asp-Npg-B3-Asp-Asp-Ala-Ala-Phe-Leu-PyrS3-3Thi-BztA-Gln-NH2], the IC50 in assay [1] (setting [3]) was 855 nM; in assay [2], more than 20000 nM.

Take `CC(=O)N1CCC[C@]12CCCCC1(CCCCCCCCOC(=O)N3CC[C@](C(=O)N[C@@H](Cc4ccsc4)C(=O)N[C@@H](Cc4csc5ccccc45)C(=O)N[C@@H](CCC(N)=O)C(N)=O)(C3)NC(=O)[C@H](CC(C)C)NC(=O)[C@H](Cc3ccccc3)NC(=O)[C@H](C)NC(=O)[C@H](C)NC(=O)[C@H](CC(=O)O)NC(=O)[C@H](CC(=O)O)NC1=O)NC(=O)[C@H](CC(C)(C)C)NC(=O)[C@H](CC(=O)O)NC2=O` (stereo partly drawn) [I-2162, Ac-PL3-Asp-Npg-B3-Asp-Asp-Ala-Ala-Phe-Leu-PyrS4-3Thi-BztA-Gln-NH2]: the 50% inhibitory concentration (IC50) in assay [1] (setting [3]) was 1160 nM; in assay [2] it was more than 20000 nM.

Turning to `CC(=O)N1CCC[C@]12CC=CCCCC1(CCCC=CCCCOC(=O)N3CC[C@@](C(=O)N[C@@H](Cc4ccccc4)C(=O)N[C@@H](Cc4csc5ccccc45)C(=O)N[C@@H](CCO)C(N)=O)(C3)NC(=O)[C@H](CC(N)=O)NC(=O)[C@H](Cc3ccccc3)NC(=O)[C@H](C)NC(=O)[C@H](CCCCNC(C)C)NC(=O)[C@H](CCC(N)=O)NC(=O)[C@H](CC(=O)O)NC1=O)NC(=O)[C@H](CC1CCCCC1)NC(=O)[C@H](CC(N)=O)NC2=O` (stereo partly drawn) [I-2167, Ac-PL3-Asn-Cha-B5-Asp-Gln-iPrLys-Ala-Phe-Asn-PyrS2-Phe-BztA-Hse-NH2], the IC50 in assay [1] (setting [3]) was 199 nM; in assay [2], more than 20000 nM.

On to `CC(=O)N1CCC[C@]12CC=CCCCC1(CCCC=CCCCOC(=O)N3CC[C@@](C(=O)N[C@@H](Cc4ccccc4C(N)=O)C(=O)N[C@@H](Cc4csc5ccccc45)C(=O)N[C@@H](CCO)C(N)=O)(C3)NC(=O)[C@H](CC(N)=O)NC(=O)[C@H](Cc3ccccc3)NC(=O)[C@H](C)NC(=O)[C@H](CCCCNC(C)C)NC(=O)[C@H](CCC(N)=O)NC(=O)[C@H](CC(=O)O)NC1=O)NC(=O)[C@H](CC1CCCCC1)NC(=O)[C@H](CC(N)=O)NC2=O` (stereo partly drawn) [I-2168, Ac-PL3-Asn-Cha-B5-Asp-Gln-iPrLys-Ala-Phe-Asn-PyrS2-2cbmf-BztA-Hse-NH2], for which the IC50 in assay [1] (setting [3]) was 212 nM; in assay [2], more than 20000 nM.

For the molecule `CC(=O)N1CCC[C@]12CC=CCCCC1(CCCC=CCCCOC(=O)N3CC[C@@](C(=O)N[C@@H](Cc4ccsc4)C(=O)N[C@@H](Cc4ccc(Cl)c(Cl)c4)C(=O)N[C@@H](CCC(N)=O)C(N)=O)(C3)NC(=O)[C@H](CC(N)=O)NC(=O)[C@H](Cc3ccccc3)NC(=O)[C@H](C)NC(=O)[C@H](C)NC(=O)[C@H](CC(=O)O)NC(=O)[C@H](CC(=O)O)NC1=O)NC(=O)[C@H](CC(C)(C)C)NC(=O)[C@H](CC(=O)O)NC2=O` (stereo partly drawn) [I-2182, Ac-PL3-Asp-Npg-B5-Asp-Asp-Ala-Ala-Phe-Asn-PyrS2-3Thi-34C1F-Gln-NH2], the IC50 in assay [1] (setting [3]) amounted to 5 nM; in assay [2] it was 11100 nM.

For the molecule `CC(=O)N1CCC[C@]12CC=CCCCC1(CCCC=CCCCOC(=O)N3CC[C@@](C(=O)N[C@@H](Cc4ccsc4)C(=O)N[C@@H](Cc4ccc(Cl)c(Cl)c4)C(=O)N[C@@H](CCC(N)=O)C(N)=O)(C3)NC(=O)[C@H](CC(C)C)NC(=O)[C@H](Cc3ccccc3)NC(=O)[C@H](C)NC(=O)[C@H](C)NC(=O)[C@H](CC(=O)O)NC(=O)[C@H](CC(=O)O)NC1=O)NC(=O)[C@H](CC(C)(C)C)NC(=O)[C@H](CC(=O)O)NC2=O` (stereo partly drawn) [I-2183, Ac-PL3-Asp-Npg-B5-Asp-Asp-Ala-Ala-Phe-Leu-PyrS2-3Thi-34C1F-Gln-NH2], the IC50 in assay [1] (setting [3]) was 5 nM; in assay [2] it was 5000 nM.

In the case of `CC(=O)N1CCC[C@]12CC=CCCCC1(CCCC=CCCCOC(=O)N3CC[C@@](C(=O)N[C@@H](Cc4ccsc4)C(=O)N[C@@H](Cc4csc5ccccc45)C(=O)N[C@@H](CCC(N)=O)C(N)=O)(C3)NC(=O)[C@H](CC(C)C)NC(=O)[C@@H](Cc3cccc(S(=O)(=O)F)c3)NC(=O)[C@H](C)NC(=O)[C@H](C)NC(=O)[C@H](CN(CC(=O)O)CC(F)(F)F)NC(=O)[C@H](CC(=O)O)NC1=O)NC(=O)[C@H](CC(C)(C)C)NC(=O)[C@H](CC(=O)O)NC2=O` (stereo partly drawn) [I-2185, Ac-PL3-Asp-Npg-B5-Asp-TfeGA-Ala-Ala-3SO2F-Leu-PyrS2-3Thi-BztA-Gln-NH2], the IC50 in assay [1] (read-out: beta-Catenin FP IC50; fluorescence polarization) came out at 42 nM; in assay [2], 6100 nM.

As to `CC(=O)N1CCC[C@]12CC=CCCCC1(CCCC=CCCCOC(=O)N3CC[C@@](C(=O)N[C@@H](Cc4ccsc4)C(=O)N[C@@H](Cc4csc5ccccc45)C(=O)NC(CCCCNC(=O)c4ccc5c(c4)B(O)OC5)C(N)=O)(C3)NC(=O)[C@H](CC(C)C)NC(=O)[C@H](Cc3ccccc3)NC(=O)[C@H](C)NC(=O)[C@H](C)NC(=O)[C@H](CN(CC(=O)O)CC(F)(F)F)NC(=O)[C@H](CC(=O)O)NC1=O)NC(=O)[C@H](CC(C)(C)C)NC(=O)[C@H](CC(=O)O)NC2=O` (stereo partly drawn) [I-2187, Ac-PL3-Asp-Npg-B5-Asp-TfeGA-Ala-Ala-Phe-Leu-PyrS2-3Thi-BztA-BnBoroleK-NH2], the figures for the IC50 in assay [1] (read-out: beta-Catenin FP IC50) and in assay [2] were 28 nM and 10800 nM, respectively.

With `CC(=O)N1CCC[C@]12CC=CCCCC1(CCCC=CCCCOC(=O)N3CC[C@@](C(=O)N[C@@H](Cc4ccsc4)C(=O)N[C@@H](Cc4csc5ccccc45)C(=O)N[C@@H](C)C(N)=O)(C3)NC(=O)[C@H](CC(C)C)NC(=O)[C@H](Cc3ccccc3)NC(=O)[C@H](C)NC(=O)[C@H](CC(=O)N(C)C)NC(=O)[C@H](Cc3cccc(C(=O)O)c3)NC(=O)[C@H](CC(=O)O)NC1=O)NC(=O)[C@H](CC(C)(C)C)NC(=O)[C@H](CC(=O)O)NC2=O` (stereo partly drawn) [I-2188, Ac-PL3-Asp-Npg-B5-Asp-3COOHF-Me2Asn-Ala-Phe-Leu-PyrS2-3Thi-BztA-Ala-NH2], the figures for the IC50 in assay [1] (setting [3]) and in assay [2] were 11 nM and 7600 nM, respectively.

In the case of `CCCC[C@@H]1NC(=O)[C@H](Cc2cccc(C(=O)O)c2)NC(=O)[C@H](CC(=O)O)NC(=O)C2(CCCC=CCCCOC(=O)N3CC[C@@](C(=O)N[C@@H](Cc4ccsc4)C(=O)N[C@@H](Cc4csc5ccccc45)C(=O)N[C@H](C(N)=O)C(C)C)(C3)NC(=O)[C@H](CC(C)C)NC(=O)[C@H](Cc3ccccc3)NC(=O)[C@H](C)NC1=O)CCCC=CC[C@]1(CCCN1C(C)=O)C(=O)N[C@@H](CC(=O)O)C(=O)N[C@@H](CC(C)(C)C)C(=O)N2` (stereo partly drawn) [I-2189, Ac-PL3-Asp-Npg-B5-Asp-3COOHF-nLeu-Ala-Phe-Leu-PyrS2-3Thi-BztA-Val-NH2], the IC50 was determined as 83 nM in assay [1] (setting [3]) and 33400 nM in assay [2].
